{
  "source": "paper PMC10176470",
  "about": "“Engaging a Non-catalytic Cysteine Residue Drives Potent and Selective Inhibition of Caspase-6” (Journal of the American Chemical Society, 2023)",
  "test_in_all_cases": "SILAC proteomics / in-gel fluorescence, competition of probe 13-t labeling by 3a",
  "key": {"[1]": {"target": "proteins of HEK293T cells transiently overexpressing caspase-6 (Homo sapiens, UniProt P07437)", "sequence (P07437 whole entry)": "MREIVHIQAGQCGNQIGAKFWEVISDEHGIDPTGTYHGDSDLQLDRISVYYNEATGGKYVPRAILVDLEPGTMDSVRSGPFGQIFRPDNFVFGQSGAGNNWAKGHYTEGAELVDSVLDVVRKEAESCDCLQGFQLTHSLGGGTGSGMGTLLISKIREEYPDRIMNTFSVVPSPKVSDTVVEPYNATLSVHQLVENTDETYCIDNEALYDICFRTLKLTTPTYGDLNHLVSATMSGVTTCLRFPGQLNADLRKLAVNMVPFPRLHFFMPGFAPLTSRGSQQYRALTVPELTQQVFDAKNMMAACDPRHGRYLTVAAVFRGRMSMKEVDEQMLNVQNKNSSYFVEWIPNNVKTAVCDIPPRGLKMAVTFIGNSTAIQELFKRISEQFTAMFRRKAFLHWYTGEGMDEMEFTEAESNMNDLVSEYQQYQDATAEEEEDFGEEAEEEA", "settings": "Comp; protein TUBB P07437"}, "[2]": {"target": "proteins of HEK293T cells transiently overexpressing caspase-6 (Homo sapiens, UniProt P11142)", "sequence (P11142 whole entry)": "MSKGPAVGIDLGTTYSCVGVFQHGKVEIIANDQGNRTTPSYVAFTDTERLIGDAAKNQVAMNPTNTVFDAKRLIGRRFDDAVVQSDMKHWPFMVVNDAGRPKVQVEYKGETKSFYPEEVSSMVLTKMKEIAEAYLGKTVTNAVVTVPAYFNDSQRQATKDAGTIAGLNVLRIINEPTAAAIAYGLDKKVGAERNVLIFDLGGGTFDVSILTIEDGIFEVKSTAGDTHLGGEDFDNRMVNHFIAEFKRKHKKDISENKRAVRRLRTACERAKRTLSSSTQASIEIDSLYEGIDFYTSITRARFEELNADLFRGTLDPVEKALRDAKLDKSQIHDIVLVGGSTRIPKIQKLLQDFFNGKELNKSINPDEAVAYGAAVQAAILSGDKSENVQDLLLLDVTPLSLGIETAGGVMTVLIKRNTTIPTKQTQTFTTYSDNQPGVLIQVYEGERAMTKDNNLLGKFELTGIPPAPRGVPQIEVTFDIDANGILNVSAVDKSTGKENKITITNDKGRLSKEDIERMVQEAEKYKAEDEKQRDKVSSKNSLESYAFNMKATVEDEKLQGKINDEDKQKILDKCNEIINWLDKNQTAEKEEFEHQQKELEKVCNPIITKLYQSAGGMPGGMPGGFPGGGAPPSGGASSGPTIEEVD", "settings": "Comp; protein HSPA8 P11142"}, "[3]": {"target": "proteins of HEK293T cells transiently overexpressing caspase-6 (Homo sapiens, UniProt P12004)", "sequence (P12004 whole entry)": "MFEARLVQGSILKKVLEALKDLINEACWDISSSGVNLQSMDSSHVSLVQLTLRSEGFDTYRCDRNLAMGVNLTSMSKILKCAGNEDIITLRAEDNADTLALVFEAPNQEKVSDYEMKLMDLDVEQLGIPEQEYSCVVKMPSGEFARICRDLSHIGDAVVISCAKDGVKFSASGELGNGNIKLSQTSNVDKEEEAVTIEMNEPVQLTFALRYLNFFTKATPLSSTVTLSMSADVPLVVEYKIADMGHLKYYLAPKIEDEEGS", "settings": "Comp; protein PCNA P12004"}, "[4]": {"target": "proteins of HEK293T cells transiently overexpressing caspase-6 (Homo sapiens, UniProt P13010)", "sequence (P13010 whole entry)": "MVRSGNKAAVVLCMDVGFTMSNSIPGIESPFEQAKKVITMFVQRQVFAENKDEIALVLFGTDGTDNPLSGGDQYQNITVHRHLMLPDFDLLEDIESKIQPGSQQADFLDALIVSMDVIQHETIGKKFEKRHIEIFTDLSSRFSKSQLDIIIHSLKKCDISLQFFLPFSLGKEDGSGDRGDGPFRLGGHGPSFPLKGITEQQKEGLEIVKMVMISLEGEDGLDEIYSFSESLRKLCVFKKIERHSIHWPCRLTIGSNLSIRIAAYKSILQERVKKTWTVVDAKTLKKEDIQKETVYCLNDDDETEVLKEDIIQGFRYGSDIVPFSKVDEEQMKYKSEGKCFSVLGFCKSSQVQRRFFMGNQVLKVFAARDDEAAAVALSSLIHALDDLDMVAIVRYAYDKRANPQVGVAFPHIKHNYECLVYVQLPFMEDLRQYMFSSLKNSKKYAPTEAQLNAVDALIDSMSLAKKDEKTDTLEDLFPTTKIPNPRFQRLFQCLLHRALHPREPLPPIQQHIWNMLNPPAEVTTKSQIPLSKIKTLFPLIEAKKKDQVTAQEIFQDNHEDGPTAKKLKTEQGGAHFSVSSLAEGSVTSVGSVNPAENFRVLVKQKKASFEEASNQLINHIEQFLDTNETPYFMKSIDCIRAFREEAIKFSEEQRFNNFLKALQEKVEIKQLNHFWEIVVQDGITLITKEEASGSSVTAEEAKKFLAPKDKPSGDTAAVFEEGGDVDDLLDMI", "settings": "Comp; protein XRCC5 P13010"}, "[5]": {"target": "proteins of HEK293T cells transiently overexpressing caspase-6 (Homo sapiens, UniProt P13804)", "sequence (P13804 20-333)": "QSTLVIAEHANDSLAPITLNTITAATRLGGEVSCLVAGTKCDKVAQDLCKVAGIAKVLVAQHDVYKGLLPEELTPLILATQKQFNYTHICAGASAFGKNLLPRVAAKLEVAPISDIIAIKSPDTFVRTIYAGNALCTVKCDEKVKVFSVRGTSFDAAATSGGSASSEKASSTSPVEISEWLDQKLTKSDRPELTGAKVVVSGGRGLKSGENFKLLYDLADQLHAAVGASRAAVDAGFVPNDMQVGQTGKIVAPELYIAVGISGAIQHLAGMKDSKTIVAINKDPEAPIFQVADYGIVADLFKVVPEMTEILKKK", "settings": "Comp; protein ETFA P13804"}, "[6]": {"target": "proteins of HEK293T cells transiently overexpressing caspase-6 (Homo sapiens, UniProt P17987)", "sequence (P17987 whole entry)": "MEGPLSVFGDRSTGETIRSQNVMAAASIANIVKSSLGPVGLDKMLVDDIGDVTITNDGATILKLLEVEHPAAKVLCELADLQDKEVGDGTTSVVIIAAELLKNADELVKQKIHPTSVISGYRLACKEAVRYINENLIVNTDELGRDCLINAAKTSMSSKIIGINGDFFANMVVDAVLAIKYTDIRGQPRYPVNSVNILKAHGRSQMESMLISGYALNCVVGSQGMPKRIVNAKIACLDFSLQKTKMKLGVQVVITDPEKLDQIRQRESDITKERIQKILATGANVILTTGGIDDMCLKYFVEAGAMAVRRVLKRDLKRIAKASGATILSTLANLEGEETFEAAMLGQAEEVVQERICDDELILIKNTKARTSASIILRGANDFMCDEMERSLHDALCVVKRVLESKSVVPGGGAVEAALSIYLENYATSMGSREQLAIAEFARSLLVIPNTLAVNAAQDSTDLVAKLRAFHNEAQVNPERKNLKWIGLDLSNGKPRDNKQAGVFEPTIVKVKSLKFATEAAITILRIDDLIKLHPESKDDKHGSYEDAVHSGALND", "settings": "Comp; protein TCP1 P17987"}, "[7]": {"target": "T1, proteins of HEK293T cells transiently overexpressing caspase-6 (Homo sapiens, UniProt P30041)", "T1 sequence (P30041 1-224)": "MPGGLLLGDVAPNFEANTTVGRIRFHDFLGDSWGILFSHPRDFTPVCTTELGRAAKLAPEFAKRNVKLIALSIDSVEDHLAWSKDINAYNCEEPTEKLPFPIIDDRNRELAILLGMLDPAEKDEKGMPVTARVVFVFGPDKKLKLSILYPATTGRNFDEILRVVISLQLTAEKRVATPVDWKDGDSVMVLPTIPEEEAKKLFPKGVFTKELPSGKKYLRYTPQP", "settings": "Comp; protein PRDX6 P30041"}, "[8]": {"target": "proteins of HEK293T cells transiently overexpressing caspase-6 (Homo sapiens, UniProt P54886)", "sequence (P54886 whole entry)": "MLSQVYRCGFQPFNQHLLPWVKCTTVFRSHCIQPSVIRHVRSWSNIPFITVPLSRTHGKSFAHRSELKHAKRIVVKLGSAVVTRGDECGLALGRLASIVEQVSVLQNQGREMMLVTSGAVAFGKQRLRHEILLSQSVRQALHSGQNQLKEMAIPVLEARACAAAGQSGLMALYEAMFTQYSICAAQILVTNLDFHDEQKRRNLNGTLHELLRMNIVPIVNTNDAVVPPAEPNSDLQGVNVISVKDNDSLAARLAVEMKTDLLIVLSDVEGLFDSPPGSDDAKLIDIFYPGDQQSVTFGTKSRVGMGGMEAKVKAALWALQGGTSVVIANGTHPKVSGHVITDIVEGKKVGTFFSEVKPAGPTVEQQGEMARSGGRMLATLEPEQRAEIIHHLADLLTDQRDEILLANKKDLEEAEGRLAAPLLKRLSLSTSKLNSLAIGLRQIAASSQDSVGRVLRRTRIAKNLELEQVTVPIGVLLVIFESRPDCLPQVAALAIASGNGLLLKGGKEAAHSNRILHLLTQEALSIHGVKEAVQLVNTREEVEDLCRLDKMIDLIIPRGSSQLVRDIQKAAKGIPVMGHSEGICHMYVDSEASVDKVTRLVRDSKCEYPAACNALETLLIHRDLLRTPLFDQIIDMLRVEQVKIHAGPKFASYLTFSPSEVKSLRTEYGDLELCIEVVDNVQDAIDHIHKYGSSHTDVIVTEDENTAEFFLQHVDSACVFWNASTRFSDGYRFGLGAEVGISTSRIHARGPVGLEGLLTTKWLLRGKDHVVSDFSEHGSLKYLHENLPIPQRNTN", "settings": "Comp; protein ALDH18A1 P54886"}, "[9]": {"target": "proteins of HEK293T cells transiently overexpressing caspase-6 (Homo sapiens, UniProt P62826)", "settings": "Comp; protein RAN P62826"}, "[10]": {"target": "proteins of HEK293T cells transiently overexpressing caspase-6 (Homo sapiens, UniProt P63104)", "sequence (P63104 whole entry)": "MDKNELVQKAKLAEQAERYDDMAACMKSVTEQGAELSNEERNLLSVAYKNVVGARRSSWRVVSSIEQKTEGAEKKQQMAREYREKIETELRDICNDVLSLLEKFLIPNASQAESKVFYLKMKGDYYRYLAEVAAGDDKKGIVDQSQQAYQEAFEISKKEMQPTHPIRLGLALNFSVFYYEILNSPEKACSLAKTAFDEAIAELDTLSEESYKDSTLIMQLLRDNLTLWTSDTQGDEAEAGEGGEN", "settings": "Comp; protein YWHAZ P63104"}, "[11]": {"target": "proteins of HEK293T cells transiently overexpressing caspase-6 (Homo sapiens, UniProt Q07020)", "settings": "Comp; protein RPL18 Q07020"}, "[12]": {"target": "T2, proteins of HEK293T cells transiently overexpressing caspase-6 (Homo sapiens, UniProt Q9BQG0)", "T2 sequence (Q9BQG0 1-1328)": "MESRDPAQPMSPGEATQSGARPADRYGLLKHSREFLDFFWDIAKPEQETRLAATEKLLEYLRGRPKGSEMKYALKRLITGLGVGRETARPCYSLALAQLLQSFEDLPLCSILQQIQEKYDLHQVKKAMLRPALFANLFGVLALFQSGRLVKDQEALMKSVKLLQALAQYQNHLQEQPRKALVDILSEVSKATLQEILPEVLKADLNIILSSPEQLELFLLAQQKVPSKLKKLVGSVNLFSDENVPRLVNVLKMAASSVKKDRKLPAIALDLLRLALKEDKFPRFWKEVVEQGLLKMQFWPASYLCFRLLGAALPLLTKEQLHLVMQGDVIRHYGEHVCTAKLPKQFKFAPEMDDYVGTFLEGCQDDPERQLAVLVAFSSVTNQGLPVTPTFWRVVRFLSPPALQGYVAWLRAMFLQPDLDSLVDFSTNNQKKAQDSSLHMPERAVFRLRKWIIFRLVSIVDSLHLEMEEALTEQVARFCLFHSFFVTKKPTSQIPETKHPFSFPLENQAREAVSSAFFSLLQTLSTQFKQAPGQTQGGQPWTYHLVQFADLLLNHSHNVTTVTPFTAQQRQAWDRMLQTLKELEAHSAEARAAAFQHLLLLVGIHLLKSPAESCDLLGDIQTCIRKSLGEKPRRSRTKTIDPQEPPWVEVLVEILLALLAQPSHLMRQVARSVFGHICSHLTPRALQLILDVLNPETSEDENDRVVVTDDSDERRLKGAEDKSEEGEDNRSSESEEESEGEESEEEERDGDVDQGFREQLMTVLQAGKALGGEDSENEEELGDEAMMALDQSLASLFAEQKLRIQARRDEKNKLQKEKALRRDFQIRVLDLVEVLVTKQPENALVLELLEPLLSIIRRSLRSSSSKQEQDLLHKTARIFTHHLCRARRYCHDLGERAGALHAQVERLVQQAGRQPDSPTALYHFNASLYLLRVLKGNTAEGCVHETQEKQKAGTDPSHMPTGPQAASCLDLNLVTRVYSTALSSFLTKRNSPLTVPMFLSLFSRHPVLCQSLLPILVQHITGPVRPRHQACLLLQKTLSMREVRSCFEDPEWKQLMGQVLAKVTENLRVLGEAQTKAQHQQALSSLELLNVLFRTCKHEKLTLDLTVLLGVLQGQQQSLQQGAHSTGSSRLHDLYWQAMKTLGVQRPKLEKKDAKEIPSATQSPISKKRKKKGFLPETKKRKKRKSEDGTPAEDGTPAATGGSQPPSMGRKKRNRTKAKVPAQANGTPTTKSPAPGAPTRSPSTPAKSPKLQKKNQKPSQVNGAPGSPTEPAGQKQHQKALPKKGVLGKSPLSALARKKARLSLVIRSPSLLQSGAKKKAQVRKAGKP", "settings": "Comp; protein MYBBP1A Q9BQG0"}},
  "data": [
    {"smiles": "C=CS(=O)(=O)N1C[C@H](C(=O)Nc2ccc(OC(F)(F)F)cc2)C[C@@H](c2ccccc2)C1", "note": "[3a]", "values": [
      {"measurement": "enrich.exp.med", "setting": "[1]", "value": 0.8512},
      {"measurement": "enrich.exp.med", "setting": "[2]", "value": 0.6036},
      {"measurement": "enrich.exp.med", "setting": "[3]", "value": 0.6316},
      {"measurement": "enrich.exp.med", "setting": "[4]", "value": 0.6006},
      {"measurement": "enrich.exp.med", "setting": "[5]", "value": 0.7888},
      {"measurement": "enrich.exp.med", "setting": "[6]", "value": 0.7901},
      {"measurement": "enrich.exp.med", "setting": "[7]", "value": 0.6066},
      {"measurement": "enrich.exp.med", "setting": "[8]", "value": 0.7021},
      {"measurement": "enrich.exp.med", "setting": "[9]", "value": 0.6474},
      {"measurement": "enrich.exp.med", "setting": "[10]", "value": 0.6236},
      {"measurement": "enrich.exp.med", "setting": "[11]", "value": 0.6186},
      {"measurement": "enrich.exp.med", "setting": "[12]", "value": 0.8156}
    ]}
  ]
}
